Test results from article PMC6346587, “Glucose 6-phosphate dehydrogenase 6-phosphogluconolactonase: characterization of the Plasmodium vivax enzyme and inhibitor studies” (Malaria Journal, 2019).

Tests used:
P. falciparum 3D7 = conditions: determined previously; cited from earlier work
[1] = system: P. falciparum 3D7[hGrx1-roGFP2] cytosolic glutathione-dependent redox potential; experiment: Cytosolic glutathione redox sensor hGrx1-roGFP2, confocal live cell imaging (CLSM); assay type: cell-based, Plasmodium falciparum; conditions: 24 h incubation, approximately 4 × EC50
Description: A Leica confocal system TCS SP5 inverted microscope equipped with the objective HCX PL APO 63.0 × 1.30 GLYC 37 °C UV connected to a 37 °C temperature chamber was used. The argon laser power was set to 20%; scanning was performed at 400 Hz frequency and at a 512 × 512 pixel resolution. The smart gain and smart offset were 950 V and −0.9%, respectively. With a sequential scan, the hGrx1–roGFP2 probe was excited at 405 nm and at 488 nm and emission was detected at 500–550 nm. Laser intensity was adjusted to match the full dynamic range of the probe to the dynamic range of the detector (405 nm: 10%, 488 nm: 4%). […] The Leica LAS AF Lite software for fluorescence analysis was used. The 405/488 nm ratio was calculated. The graphs were plotted using the GraphPad Prism 5 software (San Diego, CA, USA). For live cell imaging, only parasites showing fluorescent signals at both 405 and 488 nm excitation and an intact host cell were chosen.
The effect of ML304 and the anti-malarial drugs ATS and CQ as reference drugs on P. falciparum were investigated in 4 h and 24 h incubation experiments. […] For 4 h experiments, trophozoite stage parasites (26–30 h) of 3D7^[hGrx1–roGFP2] and NF54^[hGrx1–roGFP2] (6–8% parasitaemia) were magnetically enriched (Miltenyi Biotec, Germany), counted by using a Neubauer hemocytometer (Brand GmbH, Germany), and returned to cell culture (at 2.0 × 10^4 trophozoites μL^−1) for at least 1 h to recover. 1.0 × 10^6 cells in 100 μL cell culture medium were placed into LoBind tubes (Eppendorf, Hamburg, Germany) for 4 h incubation experiments. The parasites were treated with ML304 at 1 μM, 50 μM, and 100 μM, or with the anti-malarial drugs ATS and CQ at approximately 50 × EC50 for 4 h under cell culture conditions. Subsequently, free thiol groups were blocked with 2 mM N-ethylmaleimide (NEM) for 15 min at 37 °C. For 24 h experiments, a 5 mL culture (5% haematocrit, 6–8% parasitaemia) of ring stage parasites (6–10 h post invasion) was treated with ML304 at 1 μM, 5 μM, and 10 μΜ, or the anti-malarial drugs ATS and CQ at approximately 4 × EC50. Prior to enrichment, cysteines were blocked with 2 mM NEM for 15 min at 37 °C. For 4 h and 24 h experiments, cells were washed after incubation and resuspended in Ringer’s solution (122.5 mM NaCl, 5.4 mM KCl, 1.2 mM CaCl2, 0.8 mM MgCl2, 11 mM D-glucose, 25 mM HEPES, 1 mM NaH2PO4, pH 7.4). 50 μL of cells (1.0 × 10^6 cells 50^−1 μL^−1) were seeded onto poly-L-lysine-coated μ-Slides 18 well (flat) (Ibidi, Martinsried, Germany) and measured using CLSM (confocal laser scanning microscopy) with excitation wavelengths at 405 nm and 488 nm. […] Each experiment was carried out three times. Between 10 and 20 microscopy images were taken each time, resulting in at least 30 experimental values per concentration and incubation time. The obtained ratio values were normalized to the control value, which was set to 100. All experiments were carried out within 6 weeks after the appearance of transfectants. Mean and standard error of the mean (SEM) are shown. A one-way ANOVA test with 95% confidence intervals with the Dunnett’s multiple comparison test (GraphPad Prism 5.0) was applied for statistical analysis of significance (*p < 0.05; **p < 0.01; ***p < 0.001).

recombinant hGrx1-roGFP2 = biological target: T1, recombinant hGrx1-roGFP2 (Homo sapiens, UniProt P35754); experiment: In vitro interaction with recombinant hGrx1-roGFP2 probe; assay type: biochemical; conditions: at the concentrations used in this study
T1 construct: made in house
Description: The sensor hGrx1–roGFP2 (human glutaredoxin 1-reduction–oxidation sensitive green fluorescent protein 2) was recently transiently expressed in 3D7 P. falciparum parasites by using the pARL1a(+) expression vector. Heterologous overexpression of hGrx1–roGFP2 for the evaluation of the in vitro interactions of ML304 and anti-malarial drugs with the recombinant redox probe was performed according to [35].
ML304 was used at concentrations of 10 nM to 1 mM in degassed standard reaction buffer (100 mM potassium phosphate, 1 mM EDTA, pH 7.0). […] The characterization of the in vitro interaction of hGrx1–roGFP2 with ML304 was performed according to Schuh et al..

P. falciparum strains = conditions: cited from earlier work
[2] = cited from earlier work
PfGluPho = biological target: T2, PfGluPho (Plasmodium falciparum, UniProt Q8IKU0); conditions: cited from earlier work
T2 construct: made in house
T2 sequence (Q8IKU0 1-910): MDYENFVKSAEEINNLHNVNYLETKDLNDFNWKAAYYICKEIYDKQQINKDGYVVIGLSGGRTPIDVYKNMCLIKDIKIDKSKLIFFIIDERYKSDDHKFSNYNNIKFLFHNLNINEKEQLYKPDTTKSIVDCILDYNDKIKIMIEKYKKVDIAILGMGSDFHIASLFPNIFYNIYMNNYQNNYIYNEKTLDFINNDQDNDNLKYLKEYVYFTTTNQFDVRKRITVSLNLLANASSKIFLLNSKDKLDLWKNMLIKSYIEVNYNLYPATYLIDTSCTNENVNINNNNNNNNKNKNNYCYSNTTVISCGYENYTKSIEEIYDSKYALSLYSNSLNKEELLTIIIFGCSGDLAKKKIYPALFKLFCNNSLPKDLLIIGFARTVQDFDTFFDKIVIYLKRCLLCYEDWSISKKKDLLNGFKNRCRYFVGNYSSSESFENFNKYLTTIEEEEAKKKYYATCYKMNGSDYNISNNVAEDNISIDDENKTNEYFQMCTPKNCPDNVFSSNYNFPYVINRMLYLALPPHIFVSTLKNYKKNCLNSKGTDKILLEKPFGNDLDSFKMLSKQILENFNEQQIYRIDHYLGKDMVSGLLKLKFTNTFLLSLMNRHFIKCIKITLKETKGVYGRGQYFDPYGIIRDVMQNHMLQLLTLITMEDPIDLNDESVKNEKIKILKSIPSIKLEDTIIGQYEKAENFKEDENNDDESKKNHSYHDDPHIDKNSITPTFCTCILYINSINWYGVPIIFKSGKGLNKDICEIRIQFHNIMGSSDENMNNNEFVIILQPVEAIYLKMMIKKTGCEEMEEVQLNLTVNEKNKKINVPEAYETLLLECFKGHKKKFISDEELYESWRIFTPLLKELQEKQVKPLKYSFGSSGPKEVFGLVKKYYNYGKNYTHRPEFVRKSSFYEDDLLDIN

hG6PD = biological target: T3, hG6PD (Homo sapiens, UniProt P11413); conditions: ellagic acid; read-out: IC50 for hG6PD; cited from earlier work
T3 construct: made in house

[3] = system: Plasmodium yoelii strain overproducing GSH; design: method as in PMID 23029306; conditions: cited from earlier work
PvG6PD = PvG6PD (Plasmodium vivax, UniProt A5K3M1); experiment: PvG6PD enzyme inhibition assay (NADPH formation, absorbance 340 nm / fluorescence); assay type: biochemical; conditions: for Type of inhibition of PvG6PD: with respect to both G6P and NADP+
Description: The G6PD activity of PfGluPho variants was measured spectrophotometrically as described for the wt enzyme. Kinetic characterization of PvG6PD was performed using the same assay system at an Evolution 300 spectrophotometer (Thermo Scientific, Dreieich, Germany). In brief, the initial reduction of NADP^+ to NADPH by PvG6PD was monitored by measuring the absorbance at 340 nm. The 500 µL reaction mixture contained 200 µM NADP^+ and varying concentrations of PvG6PD in an assay buffer of 100 mM Tris–HCl, pH 8.0, 10 mM MgCl2, and 0.5 mM EDTA at 25 °C. The reaction was started by adding 800 µM G6P. The KM for NADP^+ was determined by titrating NADP^+ from 2 to 400 µM at 800 µM G6P; the KM for G6P was measured accordingly by titrating G6P from 2 to 1200 µM at 200 µM NADP^+. KM values were calculated using GraphPad Prism. Since the KM for G6P was considerably higher than the value measured for PfGluPho [14], a concentration of 800 µM G6P was defined as substrate saturation for PvG6PD.
To identify potential inhibitors of PvG6PD, compounds with already known effects on PfGluPho (ellagic acid and derivatives, ML304) were tested. Additionally, several compound libraries of the Helmholtz Center for Infection Research, Brunswick, were screened against PfGluPho using the high-throughput-compatible assay systems described in Preuss et al.. […] Based on structure-activity relationship studies, a set of new potential G6PD inhibitors (Fig. 8) was then synthesized and assessed. First, the IC50 values of the compounds were determined, followed by mechanistic characterization of the mode of action. To test for selectivity of the compounds, the IC50 values of the compounds on PvG6PD, PfGluPho, and hG6PD were determined in parallel.
All measurements were performed in 96-well plates, half area (Greiner Bio-One, Frickenhausen, Germany) using a Tecan Infinite M200 plate reader (Maennedorf, Switzerland). The compounds were dissolved in 100% DMSO and afterwards diluted in assay buffer to the required concentrations. Different compound concentrations were added to a mixture of enzyme and NADP^+ in assay buffer. Concentrations of substrates differed depending on the enzyme; an overview is given in the Additional file 4. The reaction was started by adding G6P, and the increase of NADPH was monitored by measuring the absorbance at 340 nm. To increase the sensitivity of the assay, some measurements were reproduced, detecting the fluorescence of NADPH at ex340/em460. […] A negative control containing no compound was defined as 0% inhibition; a positive control lacking the substrate G6P was defined as 100% inhibition. For evaluations using GraphPad Prism and Microsoft Excel, only a linear increase in absorbance/fluorescence was considered. For the mechanistic characterization of the compounds, either NADP^+ or G6P were titrated at different compound concentrations around the IC50, while keeping the second substrate in saturation. The initial slope was plotted as Michaelis–Menten curves and Lineweaver–Burk plots using GraphPad Prism; KM values and Vmax were calculated with GraphPad Prism software.

[4] = biological target: PfPrx1a (Plasmodium falciparum); experiment: non-reducing SDS-PAGE with western blot; recombinant PfPrx1a (positive control) after incubation with GSSG, SDS-PAGE without DTT, anti-glutathione western blot and Ponceau staining
[5] = biological target: the molecule itself; experiment: SEC; gel filtration chromatography of purified PvG6PD under reducing conditions; single peak of approximately 389 kDa

T3 sequence (P11413 whole entry): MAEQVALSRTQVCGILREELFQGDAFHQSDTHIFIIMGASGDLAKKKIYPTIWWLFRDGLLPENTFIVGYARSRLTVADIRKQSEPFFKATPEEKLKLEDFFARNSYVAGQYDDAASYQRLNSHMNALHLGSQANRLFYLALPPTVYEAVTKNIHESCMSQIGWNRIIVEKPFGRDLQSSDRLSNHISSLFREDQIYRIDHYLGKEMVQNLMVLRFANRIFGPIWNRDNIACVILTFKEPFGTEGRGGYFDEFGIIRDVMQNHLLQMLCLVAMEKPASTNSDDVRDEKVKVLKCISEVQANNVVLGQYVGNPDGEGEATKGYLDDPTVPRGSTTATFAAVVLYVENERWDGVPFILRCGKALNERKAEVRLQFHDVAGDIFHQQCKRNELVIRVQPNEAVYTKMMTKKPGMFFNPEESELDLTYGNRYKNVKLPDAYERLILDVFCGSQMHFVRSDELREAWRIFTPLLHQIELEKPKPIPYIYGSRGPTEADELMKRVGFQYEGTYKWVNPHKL

For `C[C@@H]1CC[C@H]2[C@@H](C)C(=O)O[C@@H]3O[C@@]4(C)CC[C@@H]1[C@]32OO4` [ATS, artemisinin], the EC50 (P. falciparum 3D7) is listed as 4.4 nM, the “Increase of redox ratio (405/488 nm)” value [1] is listed as “hardly affected” and the “Direct interaction with recombinantly purified hGrx1-roGFP2 probe” value (recombinant hGrx1-roGFP2) is listed as “excluded a direct interaction”.

For `CCN(CC)CCCC(C)Nc1ccnc2cc(Cl)ccc12` (stereo not drawn) [CQ, chloroquine], the EC50 (P. falciparum 3D7) is given as 8.6 nM, the “Increase of redox ratio (405/488 nm)” value [1] is given as 1.5 fold and the “Direct interaction with recombinantly purified hGrx1-roGFP2 probe” value (recombinant hGrx1-roGFP2) is given as “excluded a direct interaction”.

In the case of `O=c1oc2c(O)c(O)cc3c(=O)oc4c(O)c(O)cc1c4c23` [ellagic acid], the “Interaction with chloroquine, atovaquone, mefloquine, and artesunate” value (P. falciparum strains) is given as “synergistic effects”, the Haemolytic effects ([2]; mice) is given as “no observable haemolytic effects” and the “Overall toxicity in mice” value ([2]; mouse, in vivo) is given as “low”. The IC50 (PfGluPho; ellagic acid, read-out: IC50 on PfGluPho) was 77 ± 22 nM, the “Type of inhibition of PfGluPho” value (PfGluPho; with respect to both G6P and NADP+) was “mixed type inhibition” and the IC50 (hG6PD) was 102 ± 39 nM. The “Sensitivity of GSH-overproducing P. yoelii strain versus wt” value [3] was “five times less sensitive”, the IC50 (PvG6PD) was 32.5 ± 13.4 nM and the “Type of inhibition of PvG6PD” value (PvG6PD) was “mixed type inhibitor”. For the same molecule, the “Type of inhibition of PvG6PD” value (PvG6PD; listed as EA) was “mixed type inhibition”.

PfPrx1a (enzyme) showed a stoichiometry N [4] of 2.

B1: Plasmodium vivax glucose 6-phosphate dehydrogenase (PvG6PD), C-terminal part (aa 310-927) of PvGluPho (domain or fragment, UniProt A5K3M1 310-927, looked up)
chain: LNRRECLTIIVFGCSGDLAKKKIYPAIFKLFCNKRLPKDLLIVGFARTAQSFDSFFDKIVGYLKRCLHSYEDLSLTQKKDLLNCFKNKCRYYIGDYSSSESFERFNKYLTQLERENLIGTAPTSWAAAAGNASFANDTDKVEHHPDEAILAKGTGAATPGEAPGGANGPATHGEAHGGANGLSTPMQGKAVPTDDTSDEGHSGANHPFAINRILYLALPPHIFVSTLKNYKKNCQNGNGTDKILLEKPFGKDLQTFKVLSKQILENFNEEHIYRIDHYLGKDMVSGLLKLKFTNTFLLSLMNRHFIKCIKITLKETKGVYGRGQYFDPYGIIRDVMQNHMLQLLALITMEDPIDLNDESVKNEKIKILKCIQSIKLDNTIIGQYVKSENYQEEKNLSAPPSDDHPVDESKRNHSYHDDPHIDSNSITPTFCTCILYINSINWYGVPIIFKAGKGLNKDICEIRLQFHNIMGSSDESMYNNEFVIILQPVEVIYLKMMIKKTGCEEMEEVQLNLTVNHKNKKNYVPEAYETLLLECFRGFKKKFISDEELYESWRIFTPLLNELQEKKVQPLKYPFGSSGPKEVYDLVKKYYNYGKNYANTPAFVRKSSFYEDDLLDIN
notes: glucose 6-phosphate dehydrogenase 6-phosphogluconolactonase (PvGluPho) of Plasmodium vivax, PlasmoDB PVX_117790; G6PD part, aa 310-927 (bp 930-2784); Calculated mass of the His-tagged protein 71.9 kDa; also called P. vivax G6PD; source: E. coli M15 with pRAREII (pQE30 vector), purified (Ni-NTA, size exclusion chromatography); not shown: His6, N-terminal, kept
For B1, the “stoichiometry N” value [5] was 6.
